In PubChem BioAssay AID330 (DTP/NCI, 2004):
Values joined by “and” are separate entries in the source; they are usually repeats but may differ in a detail not shown here. Equal entries are not always repeated. Inconclusive results and toxic doses are left out. Rule for the calls: active = survival T/C of 150% or more; inactive = T/C below 125% in these data.

Tested on: P388 leukemia ip, CD2F1 mice, survival T/C
Assay: NCI In Vivo Anticancer Drug Screen. Data for tumor model P388 Leukemia (intraperitoneal) in CD2F1 (CDF1) mice
Conditions: endpoint: median survival time, higher = longer survival
Procedure, shortened: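 Mice carrying the transplanted tumor received test compound or vehicle. Survival was recorded in each group, and the value is the treated-group measurement divided by that of the vehicle-treated control group.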

[1] = dose: 6.25 mg/kg/injection, schedule: Q01DX009 (ip), vehicle: water
[2] = dose: 12.5 mg/kg/injection, schedule: Q01DX009 (ip), vehicle: water
[3] = dose: 60.0 mg/kg/injection, schedule: Q01DX005 (ip), vehicle: saline with Tween-80
[4] = dose: 240.0 mg/kg/injection, schedule: Q01DX005 (ip), vehicle: saline with Tween-80
[5] = dose: 50.0 mg/kg/injection, schedule: Q04DX003 (ip), vehicle: saline with Tween-80
[6] = dose: 100.0 mg/kg/injection, schedule: Q04DX003 (ip), vehicle: saline with Tween-80
[7] = dose: 200.0 mg/kg/injection, schedule: Q04DX003 (ip), vehicle: saline with Tween-80
[8] = dose: 120.0 mg/kg/injection, schedule: Q01DX005 (ip), vehicle: saline with Tween-80

Measured: T/C

COc1cccc2c1C(=O)c1c(O)c3c(c(O)c1C2=O)CC(O)(C(C)=O)CC3OC1CC(N)C(OC2CC(N)C(O)C(C)O2)C(C)O1 (stereo not given)
inactive: dose: 0.39 mg/kg/injection, schedule: Q01DX009 (ip), vehicle: water 116 % of control | dose: 3.13 mg/kg/injection, schedule: Q04DX003 (ip), vehicle: water 112 % of control | [1] 113 % of control and 116 % of control | dose: 6.25 mg/kg/injection, schedule: Q04DX003 (ip), vehicle: water 103 % of control | [2] 114 % of control and 86 % of control | dose: 12.5 mg/kg/injection, schedule: Q04DX003 (ip), vehicle: water 103 % of control | dose: 25.0 mg/kg/injection, schedule: Q04DX003 (ip), vehicle: water 121 % of control | dose: 50.0 mg/kg/injection, schedule: Q04DX003 (ip), vehicle: water 112 % of control
active: dose: 1.56 mg/kg/injection, schedule: Q01DX009 (ip), vehicle: water 150 % of control | dose: 3.13 mg/kg/injection, schedule: Q01DX009 (ip), vehicle: water 161 % of control and 196 % of control

CN1c2ccccc2SC2C(c3ccccc3)=NOC21 (stereo not given)
inactive: dose: 3.75 mg/kg/injection, schedule: Q01DX005 (ip), vehicle: saline with Tween-80 98 % of control | dose: 7.5 mg/kg/injection, schedule: Q01DX005 (ip), vehicle: saline with Tween-80 93 % of control | dose: 15.0 mg/kg/injection, schedule: Q01DX005 (ip), vehicle: saline with Tween-80 90 % of control | dose: 30.0 mg/kg/injection, schedule: Q01DX005 (ip), vehicle: saline with Tween-80 88 % of control | [3] 86 % of control | [4] 89 % of control

Nc1nc(-c2ccc([N+](=O)[O-])cc2)c([N+](=O)[O-])c(=O)[nH]1
inactive: dose: 3.0 mg/kg/injection, schedule: Q01DX009 (ip), vehicle: saline with Tween-80 105 % of control | dose: 6.0 mg/kg/injection, schedule: Q01DX009 (ip), vehicle: saline with Tween-80 110 % of control | dose: 12.0 mg/kg/injection, schedule: Q01DX009 (ip), vehicle: saline with Tween-80 110 % of control

CNC(=O)Nc1c(C)cccc1C
inactive: dose: 25.0 mg/kg/injection, schedule: Q04DX003 (ip), vehicle: saline with Tween-80 104 % of control | [5] 100 % of control | [6] 105 % of control | [7] 107 % of control

CC(C)CCC1=CC(=O)c2c(O)ccc(O)c2C1=O
inactive: dose: 2.5 mg/kg/injection, schedule: Q04DX002 (ip), vehicle: DMSO 97 % of control | dose: 5.0 mg/kg/injection, schedule: Q04DX002 (ip), vehicle: DMSO 97 % of control | dose: 10.0 mg/kg/injection, schedule: Q04DX002 (ip), vehicle: DMSO 95 % of control

N=C(N)c1ccc(OCCCCOc2ccc(N)cc2)cc1
inactive: dose: 60.0 mg/kg/injection, schedule: Q01DX005 (ip), vehicle: Klucel (hydroxypropylcellulose) (HPC) 97 % of control | dose: 120.0 mg/kg/injection, schedule: Q01DX005 (ip), vehicle: Klucel (hydroxypropylcellulose) (HPC) 101 % of control

CCCCCCCCCCCCCC1C=CCC1 (stereo not given)
inactive: dose: 100.0 mg/kg/injection, schedule: Q01DX001 (ip), vehicle: saline 101 % of control | dose: 200.0 mg/kg/injection, schedule: Q01DX001 (ip), vehicle: saline 99 % of control | dose: 400.0 mg/kg/injection, schedule: Q01DX001 (ip), vehicle: saline 100 % of control

COCc1ccccc1-n1nccc1S(C)=O (stereo not given)
inactive: [3] 106 % of control | [8] 98 % of control | [4] 106 % of control

CC(C)(C)OC(=O)NC(Cc1cnc[nH]1)C(=O)O (stereo not given)
inactive: dose: 50.0 mg/kg/injection, schedule: Q01DX005 (ip), vehicle: Klucel (hydroxypropylcellulose) (HPC) 90 % of control | dose: 100.0 mg/kg/injection, schedule: Q01DX005 (ip), vehicle: Klucel (hydroxypropylcellulose) (HPC) 99 % of control | dose: 200.0 mg/kg/injection, schedule: Q01DX005 (ip), vehicle: Klucel (hydroxypropylcellulose) (HPC) 98 % of control

C[Si](C)(C)/N=C/O[Si](C)(C)C
inactive: dose: 60.0 mg/kg/injection, schedule: Q01DX005 (ip), vehicle: saline 100 % of control | dose: 120.0 mg/kg/injection, schedule: Q01DX005 (ip), vehicle: saline 101 % of control | dose: 240.0 mg/kg/injection, schedule: Q01DX005 (ip), vehicle: saline 108 % of control

O=[N+]([O-])c1ccc(-c2csc(=[N+]3CCCCC3)s2)cc1
inactive: [1] 106 % of control and 114 % of control | [2] 114 % of control

COc1ccc(-c2cc(-c3ccccc3)[nH]c(=O)c2C#N)cc1
inactive: dose: 12.5 mg/kg/injection, schedule: Q01DX009 (ip), vehicle: acid diluted with saline 101 % of control | dose: 25.0 mg/kg/injection, schedule: Q01DX009 (ip), vehicle: acid diluted with saline 99 % of control | dose: 50.0 mg/kg/injection, schedule: Q01DX009 (ip), vehicle: acid diluted with saline 101 % of control

CC12CCC(Br)C(C)(C)C1C(O)C=C1C(=O)OCC1O2 (stereo not given)
inactive: dose: 4.0 mg/kg/injection, schedule: Q01DX005 (ip), vehicle: Klucel (hydroxypropylcellulose) (HPC) 102 % of control | dose: 8.0 mg/kg/injection, schedule: Q01DX005 (ip), vehicle: Klucel (hydroxypropylcellulose) (HPC) 96 % of control | dose: 16.0 mg/kg/injection, schedule: Q01DX005 (ip), vehicle: Klucel (hydroxypropylcellulose) (HPC) 102 % of control | dose: 32.0 mg/kg/injection, schedule: Q01DX005 (ip), vehicle: Klucel (hydroxypropylcellulose) (HPC) 102 % of control

CC(=O)c1ccccc1OCC(O)CNc1ccc(Cl)cc1C(=O)c1ccccc1 (stereo not given)
inactive: [3] 99 % of control and 92 % of control | [8] 92 % of control | [4] 89 % of control and 96 % of control

O=C(O)CCN(Cc1ccccc1)Cc1ccccc1
inactive: dose: 100.0 mg/kg/injection, schedule: Q04DX003 (ip), vehicle: saline 100 % of control | dose: 200.0 mg/kg/injection, schedule: Q04DX003 (ip), vehicle: saline 100 % of control | dose: 400.0 mg/kg/injection, schedule: Q04DX003 (ip), vehicle: saline 109 % of control

Cc1ccc(S(=O)(=O)N/N=C/c2ccc(Cl)cc2O)cc1
inactive: dose: 12.5 mg/kg/injection, schedule: Q01DX005 (ip), vehicle: distilled water + Tween-80 102 % of control | dose: 25.0 mg/kg/injection, schedule: Q01DX005 (ip), vehicle: distilled water + Tween-80 99 % of control | dose: 50.0 mg/kg/injection, schedule: Q01DX005 (ip), vehicle: distilled water + Tween-80 100 % of control | dose: 100.0 mg/kg/injection, schedule: Q01DX005 (ip), vehicle: distilled water + Tween-80 100 % of control | dose: 200.0 mg/kg/injection, schedule: Q01DX005 (ip), vehicle: distilled water + Tween-80 100 % of control

Oc1ccccc1C=NCCN=Cc1ccccc1O
inactive: dose: 50.0 mg/kg/injection, schedule: Q01DX009 (ip), vehicle: saline with Tween-80 99 % of control | dose: 100.0 mg/kg/injection, schedule: Q01DX009 (ip), vehicle: saline with Tween-80 99 % of control | dose: 200.0 mg/kg/injection, schedule: Q01DX009 (ip), vehicle: saline with Tween-80 101 % of control | dose: 400.0 mg/kg/injection, schedule: Q01DX009 (ip), vehicle: saline with Tween-80 105 % of control

CC(NC(=O)OC(C)(C)C)C(=O)NC(C)C(=O)OCc1ccccc1 (stereo not given)
inactive: dose: 50.0 mg/kg/injection, schedule: Q01DX005 (ip), vehicle: saline with Tween-80 99 % of control | dose: 100.0 mg/kg/injection, schedule: Q01DX005 (ip), vehicle: saline with Tween-80 89 % of control and 105 % of control | dose: 200.0 mg/kg/injection, schedule: Q01DX005 (ip), vehicle: saline with Tween-80 92 % of control

O=C1CCC2(CC1C1C=CCC1)OCCO2 (stereo not given)
inactive: dose: 100.0 mg/kg/injection, schedule: Q01DX009 (ip), vehicle: saline sonified 100 % of control | dose: 200.0 mg/kg/injection, schedule: Q01DX009 (ip), vehicle: saline sonified 116 % of control | dose: 400.0 mg/kg/injection, schedule: Q01DX009 (ip), vehicle: saline sonified 100 % of control

CC(=O)C1C(=O)OC(C)=C(C(=O)O)C1=O (stereo not given)
inactive: [5] 109 % of control | [6] 109 % of control | [7] 100 % of control

C[C@]12CC[C@H]3[C@@H](CC[C@H]4N(CCCl)CCC[C@]34C)[C@@H]1CC[C@@H]2O
inactive: dose: 25.0 mg/kg/injection, schedule: Q01DX001 (ip), vehicle: saline 108 % of control

CC1=NCCN=C(C)C1N=Nc1ccccc1
inactive: [6] 90 % of control | [7] 90 % of control

CCOC(=O)/C=C(\C(=O)OCC)N(O)C(=O)CN1C(=O)c2ccccc2C1=O
inactive: dose: 50.0 mg/kg/injection, schedule: Q01DX001 (ip), vehicle: saline with Tween-80 106 % of control | dose: 100.0 mg/kg/injection, schedule: Q01DX001 (ip), vehicle: saline with Tween-80 105 % of control | dose: 200.0 mg/kg/injection, schedule: Q01DX001 (ip), vehicle: saline with Tween-80 98 % of control | dose: 400.0 mg/kg/injection, schedule: Q01DX001 (ip), vehicle: saline with Tween-80 93 % of control
